The values that follow come from ChEMBL document CHEMBL1201862, “PubChem BioAssay data set” (2004).

Test systems include A549; NCI-H522; HCT-15; SF-295; HL-60; SNB-19; HOP-62; T47D; MCF7; SF-268; SK-MEL-5; NCI/ADR-RES; HT-29; OVCAR-8; EKVX; K562; DU-145; KM12; UO-31; Malme-3M.
Holding throughout (experiment): NCI tumour cell line growth inhibition, 48 h

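Dose response: 5 concentrations. Exposure: 48 h. Format: 96-well plates. Endpoint: linear interpolation; highest concentration if not reached. GI50 marks 50% less growth.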 Calls of active or inactive are those of the source. Rule as the data show it: active = GI50 up to about 1.1 µM and inactive = higher.

On to `CC1=C(C(=O)OCc2ccncc2)C(C2=C(C)SCCS2)C(C(=O)OCc2ccncc2)=C(C)N1`, for which the GI50 was 33.3 µM (inactive) with A549; 22.8 µM (inactive) in the test with NCI-H522; 25.6 µM in the test on HCT-15; 18.2 µM (inactive) in the test with SF-295; 25.4 µM (inactive) in the test with HL-60; 29.1 µM (inactive) in the test with SNB-19. Moreover, the GI50 with HOP-62 is 21.7 µM (inactive); in the test with T47D, 16.1 µM (inactive); in the test on MCF7, 20.8 µM (inactive); with SF-268, 33 µM (inactive); in the test with SK-MEL-5 it was 15.3 µM (inactive); in the test with NCI/ADR-RES it was 37.4 µM (inactive). Besides, the GI50 is 17.9 µM (inactive) in the test on HT-29; 26.4 µM (inactive) in the test with OVCAR-8; 21.2 µM (inactive) in the test with EKVX; 20 µM (inactive) in the test with K562; 29.4 µM (inactive) in the test on DU-145; 21.3 µM (inactive) in the test with KM12. For the same compound, the GI50 with UO-31 was 17.5 µM (inactive).

Turning to `Cc1cn(C2CCC(CO)(CF)O2)c(=O)[nH]c1=O` (stereo not given), the GI50 with A549 is > 100 µM (inactive); in the test with NCI-H522 it was > 100 µM (inactive); in the test on HCT-15 it was greater than 100 µM; in the test with SF-295, > 100 µM (inactive); in the test on HL-60, > 100 µM (inactive); in the test on SNB-19, > 100 µM (inactive). Further, the GI50 with HOP-62, with T47D, in the test with MCF7, in the test on SF-268, in the test with SK-MEL-5 and with NCI/ADR-RES was > 100 µM (inactive) in each case. In addition, the GI50 in the test with HT-29, in the test on OVCAR-8, in the test on EKVX, with K562, in the test on DU-145 and with KM12 was > 100 µM (inactive) each time. In the test with UO-31, the GI50 is > 100 µM (inactive).

Turning to `CCOC(=O)Oc1ccc2c(c1)c(=O)c1c(NCCCN(CC)CC)ccc3nnn2c31`, the GI50 was 1.64 µM (inactive) with A549; 1.56 µM (inactive) in the test on NCI-H522; 3.09 µM in the test with HCT-15; 1.82 µM (inactive) with SF-295; 5.2 µM (inactive) with SNB-19; 1.75 µM (inactive) in the test with HOP-62. Moreover, the GI50 was 16.8 µM (inactive) with T47D; 0.929 µM (active) in the test on MCF7; 11.6 µM (inactive) in the test with SF-268; 10.2 µM (inactive) with SK-MEL-5; 13.4 µM (inactive) in the test with Malme-3M; 7.76 µM (inactive) in the test with NCI/ADR-RES. In addition, the GI50 was 2.55 µM (inactive) in the test with HT-29; 3.48 µM (inactive) with OVCAR-8; 10.7 µM (inactive) with EKVX; 5.13 µM (inactive) in the test on K562; 0.951 µM (active) in the test on DU-145; 0.982 µM (active) with KM12. In addition, the GI50 in the test with UO-31 was 0.598 µM (active).

As to `COc1cccc2c1C(=N)c1c(O)c3c(c(O)c1C2=O)C[C@@](O)(C(C)=O)C[C@@H]3OC1CC(N)C(O)C(C)O1` (stereo not given in full), the GI50 in the test on A549 was 0.00832 µM (active); in the test on NCI-H522, 0.163 µM (active); in the test on HCT-15, 3.27 µM; in the test on SF-295, 0.000206 µM (active); in the test with SNB-19 it was 0.00811 µM (active); in the test with HOP-62 it was 0.125 µM (active). In addition, the GI50 is 0.0047 µM (active) in the test on T47D; 0.805 µM (active) in the test on MCF7; 0.00938 µM (active) in the test with SF-268; 0.196 µM (active) in the test with SK-MEL-5; 0.000721 µM (active) in the test with Malme-3M; 0.000159 µM (active) with NCI/ADR-RES. For the same compound, the GI50 was 0.4 µM (active) in the test on HT-29; 1.42 µM (inactive) in the test with EKVX; 0.000159 µM (active) with K562; 0.00386 µM (active) in the test on DU-145; 0.313 µM (active) in the test with KM12; 0.00369 µM (active) in the test on UO-31.
